Laboratory results taken from publication PMC10605449 (Biosensors, 2023).
Changes are numbered by the printed parent chain.

Assays:
Assay type in all cases: binding
MARK3(48-370) Mutant 3 = target: T1, MARK3(48-370) Mutant 3 (Homo sapiens, UniProt P27448, A68G/E139D/F67Y/I62L/L128I/L130I/N66T/T204H/V116I/V205Q); assay: SPR Extract2Chip, cellular biotinylated MARK3 Mutant 3, GSK461364A injected; conditions: 15 °C
T1 construct: made in house; host or cells: E. coli Rosetta 2, co-expressed with BirA; soluble lysate used without purification
T1 sequence (P27448 48-370 I62L/N66T/F67Y/A68G/V116I/L128I/L130I/E139D/T204H/V205Q): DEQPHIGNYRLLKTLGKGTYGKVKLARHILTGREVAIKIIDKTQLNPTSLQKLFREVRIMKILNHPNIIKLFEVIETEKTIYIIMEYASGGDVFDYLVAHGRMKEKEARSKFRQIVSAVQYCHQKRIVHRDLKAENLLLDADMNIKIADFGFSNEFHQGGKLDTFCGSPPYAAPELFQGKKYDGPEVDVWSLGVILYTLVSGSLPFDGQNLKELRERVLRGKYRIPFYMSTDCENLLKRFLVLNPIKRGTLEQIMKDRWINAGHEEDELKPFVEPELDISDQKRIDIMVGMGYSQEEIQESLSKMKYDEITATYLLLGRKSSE
Experimental: (§1) The cellular biotinylation of MARK3(48-370) kinase domain mutants followed the same approach as described for CypD. The 6 different mutants were expressed in Rosetta^TM 2 in PB media, and induced with 100 µM IPTG overnight at 18 °C.
(§2) The cellular biotinylated MARK3 NUAK2-like mutants were immobilized using the approach described in Section 2.5.2. The soluble cell lysates were diluted to a final concentration of 200 µg/mL, then injected over the neutravidin surfaces for 200 or 1400 s in order to reach 1000 to 2300 RU.
(§3) The interaction analysis cycles consisted of 140 s of sample injection followed by 350 to 600 s of running buffer flow. The running buffer was composed of 20 mM HEPES pH 7.4, 100 mM NaCl, 5 mM MgCl2, 1 mM EGTA, 1 mM DTT, 0.05% Tween-20, and 2% DMSO, and the experiment was performed at 15 °C.
(§4) All sensorgrams were processed by first subtracting the binding response recorded from the control surface (reference spot, where only the avidin protein is immobilized), followed by subtraction of the buffer blank injection from the reaction spot. All datasets were fitted to a simple 1:1 Langmuir interaction model to determine the kinetic rate constants, and the interaction affinity was additionally calculated at a steady state when applicable. […]

MARK3(48-370) Mutant 5 = target: T2, MARK3(48-370) Mutant 5 (Homo sapiens, UniProt P27448, A68G/E139D/F199L/F67Y/G137R/I62L/L128I/L130I/N66T/T204H/V116I/V205Q); assay: SPR Extract2Chip, cellular biotinylated MARK3 Mutant 5, GSK461364A injected; conditions: 15 °C
T2 construct: made in house; host or cells: E. coli Rosetta 2, co-expressed with BirA; soluble lysate used without purification
T2 sequence (P27448 48-370 I62L/N66T/F67Y/A68G/V116I/L128I/L130I/G137R/E139D/F199L/T204H/V205Q): T1 sequence (P27448 48-370 I62L/N66T/F67Y/A68G/V116I/L128I/L130I/E139D/T204H/V205Q) with G90R, F152L
Experimental: as §1, §2, §3, §4

NUAK2(1-628) = target: T3, NUAK2(1-628) (Homo sapiens, UniProt Q9H093); assay: SPR, pure GST-NUAK2(1-628) immobilized by amine coupling, GSK461364A injected; conditions: pure NUAK2(1-628); 15 °C
T3 construct: GST-NUAK2(1-628) was purchased from Carna Biosciences, Inc (Kobe, Japan); purchased Carna Biosciences, Inc (Kobe, Japan)
T3 sequence (Q9H093 1-628): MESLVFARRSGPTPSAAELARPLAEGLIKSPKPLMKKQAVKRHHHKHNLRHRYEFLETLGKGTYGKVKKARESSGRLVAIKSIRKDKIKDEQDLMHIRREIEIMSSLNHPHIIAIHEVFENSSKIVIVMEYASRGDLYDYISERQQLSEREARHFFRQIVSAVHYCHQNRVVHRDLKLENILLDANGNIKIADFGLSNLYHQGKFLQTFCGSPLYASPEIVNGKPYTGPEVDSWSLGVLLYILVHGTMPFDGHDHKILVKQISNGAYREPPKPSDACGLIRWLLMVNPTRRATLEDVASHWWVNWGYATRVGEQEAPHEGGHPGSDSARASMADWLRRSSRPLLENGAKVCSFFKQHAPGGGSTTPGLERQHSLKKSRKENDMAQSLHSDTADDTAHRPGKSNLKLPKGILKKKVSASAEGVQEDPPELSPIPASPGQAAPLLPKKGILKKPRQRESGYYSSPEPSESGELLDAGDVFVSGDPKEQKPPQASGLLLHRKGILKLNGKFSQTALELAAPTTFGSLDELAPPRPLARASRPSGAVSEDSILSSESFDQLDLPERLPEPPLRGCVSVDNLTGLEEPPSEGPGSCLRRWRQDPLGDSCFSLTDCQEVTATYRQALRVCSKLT
Experimental: as §3
(§5) All sensorgrams were processed by first subtracting the binding response recorded from the control surface (reference spot, where only the avidin protein is immobilized), followed by subtraction of the buffer blank injection from the reaction spot. All datasets were fitted to a simple 1:1 Langmuir interaction model to determine the kinetic rate constants, and the interaction affinity was additionally calculated at a steady state when applicable. In cases where small molecules were present during the assay, a DMSO solvent correction (1–3%) was applied to account for variations in bulk signal and to achieve high-quality data. The experiments with immobilized purified proteins were performed on a Biacore 4000 (Cytiva, Uppsala, Sweden), and the interaction was evaluated using the provided Biacore 4000 evaluation software, while the experiments with soluble cell lysates on a Biacore T200 (Cytiva, Uppsala, Sweden) used the provided Biacore T200 evaluation software. All SPR experiments were performed in duplicate.

MARK3(48-370) = target: T4, MARK3(48-370) (Homo sapiens, UniProt P27448); assay: SPR, pure MARK3(48-370) WT immobilized by amine coupling, GSK461364A injected
T4 construct: The purified His6-TEV-MARK3(48-370) was immobilized using the same approach as GST-NUAK2(1-628); HRV3C site (C, cleaved yes); AviTag (C, cleaved yes); made in house
T4 sequence (P27448 48-370): T1 sequence (P27448 48-370 I62L/N66T/F67Y/A68G/V116I/L128I/L130I/E139D/T204H/V205Q) with L15I, T19N, Y20F, G21A, I69V, I81L, I83L, D92E, H157T, Q158V
Experimental: as §3, §5

## C[C@@H](Oc1cc(-n2cnc3ccc(CN4CCN(C)CC4)cc32)sc1C(N)=O)c1ccccc1C(F)(F)F [GSK461364A]
MARK3(48-370) Mutant 3
  kd ± SD: 0.028 ± 0.003 s⁻¹
MARK3(48-370) Mutant 5
  kd ± SD: 0.035 ± 0.012 s⁻¹
NUAK2(1-628)
  kd ± SD: 0.031 ± 0.017 s⁻¹
MARK3(48-370)
  Binding behavior: transient binding behavior
